Target: T1, human HCN1 channel (Homo sapiens, UniProt O60741, S680F)
T1 construct: Effect of ZD 7288 (100 micromolar) on hHCN1 (full-length) currents; expressed in transfected cells; host or cells: HEK 293F
T1 sequence (O60741 1-890 S680F): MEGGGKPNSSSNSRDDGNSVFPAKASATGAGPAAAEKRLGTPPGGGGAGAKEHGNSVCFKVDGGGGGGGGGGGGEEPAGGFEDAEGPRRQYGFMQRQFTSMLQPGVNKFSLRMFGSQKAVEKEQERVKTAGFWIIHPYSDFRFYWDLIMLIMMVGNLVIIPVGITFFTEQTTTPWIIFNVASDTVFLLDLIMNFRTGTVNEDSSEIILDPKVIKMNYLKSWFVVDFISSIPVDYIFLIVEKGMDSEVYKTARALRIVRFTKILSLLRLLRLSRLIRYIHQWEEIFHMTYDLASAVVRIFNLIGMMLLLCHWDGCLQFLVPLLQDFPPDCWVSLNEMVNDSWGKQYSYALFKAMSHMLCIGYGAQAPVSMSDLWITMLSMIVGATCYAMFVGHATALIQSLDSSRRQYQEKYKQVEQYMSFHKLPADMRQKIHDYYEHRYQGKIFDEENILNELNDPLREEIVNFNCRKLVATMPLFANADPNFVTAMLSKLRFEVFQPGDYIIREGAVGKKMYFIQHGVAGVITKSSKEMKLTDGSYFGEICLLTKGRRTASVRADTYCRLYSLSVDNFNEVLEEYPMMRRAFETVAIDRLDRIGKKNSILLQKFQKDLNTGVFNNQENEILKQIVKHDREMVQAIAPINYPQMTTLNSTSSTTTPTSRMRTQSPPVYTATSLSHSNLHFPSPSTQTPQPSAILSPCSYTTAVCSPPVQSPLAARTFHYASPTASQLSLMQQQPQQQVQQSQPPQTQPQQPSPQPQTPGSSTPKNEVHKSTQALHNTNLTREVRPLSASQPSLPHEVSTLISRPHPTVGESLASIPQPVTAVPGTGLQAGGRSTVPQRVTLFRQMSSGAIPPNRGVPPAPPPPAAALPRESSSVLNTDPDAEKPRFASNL
Assay: Whole-cell patch-clamp functional assay for human HCN1 channel currents
Type: cell-based
Details: HEK293 cells expressing human HCN1, step to -120 mV from holding -40 mV
Method: Human HCN1 channel currents were detected under voltage-clamp using the whole-cell configuration of the patch-clamp technique. Appropriate cells (HEK293) expressing human HCN1 channel subunits were placed in a recording chamber containing extracellular solution (Sodium chloride 135 mM; Potassium chloride 5 mM; Calcium chloride 1.8 mM; Magnesium chloride 0.5 mM; HEPES 5 mM) at a temperature of 20-25 degrees centigrade. In some experiments the extracellular solution contained 30 mM Potassium chloride, in which cases the Sodium chloride concentration was reduced to 110 mM. […] The membrane current was recorded throughout the experiment. […] The membrane current was measured just after (1-10 milliseconds) the start of the hyperpolarising step and just before (10-100 milliseconds) its end. […] For each cell, the current amplitude was determined first in normal extracellular solution and then in extracellular solution containing caesium chloride (FIG. 3) or ZD 7288 (FIGS. 4 and 7). Alternatively, the effect of caesium chloride (5 mM) on human HCN1 channel currents was determined by measuring the current-voltage relationship in normal extracellular solution and also in extracellular solution containing caesium chloride (FIG. 6). […]

Effect on human HCN1 channel currents (ZD 7288 100 micromolar in extracellular solution) | SMILES | Effect on human HCN1 channel currents (caesium chloride 5 mM in extracellular solution)
reduced | CCN(c1ccccc1)c1cc(=NC)n(C)c(C)n1.Cl [ZD 7288] | 
 | [Cl-].[Cs+] [caesium chloride] | reduced
